In BindingDB's records for patent US20240360134 (Actelion Pharmaceuticals, 2024) one finds IC50 data, which are given here for 11 compounds.

Experiment [1] concerns the target T1, Platelet-derived growth factor receptor beta (Homo sapiens, UniProt P09619). As to the kind of experiment: PDGFRβ LanthaScreen Assay. (In general: Time-resolved FRET reads energy transfer from a long-lived donor to a nearby acceptor.)
Method: Dispensing inhibitors: Using Echo, dispense 40 nL/well (or less) compound serial dilutions in DMSO onto the assay plate.Step 2. Dispensing Kinase-Tracer solution: Add 4 μL/well Kinase-Tracer solution. Seal the plate with optically transparent plate seal. […] Detection: Read TR-FRET signals after 18 hours incubation at room temperature.III. […] IC50 values are determined from a 4-parameter fit, using the following equation: Y=Bottom+(Top−Bottom)/(1+10((Log IC50−X)*Hill slope)), where X=log10 of the compound concentration; top can be defined by PC; bottom defined by NC.
For experiment [2], the target named is Vascular endothelial growth factor receptor 2 (Homo sapiens, UniProt P35968). As to the kind of experiment: VEGFR ADP GLO Assay. The method, then:
Step 1. Dispensing inhibitors/controls: Using Echo, dispense 10 nL/well compound serial dilutions in DMSO to columns 1-22 (in 384-well plates) or columns 1-44 (in 1536-well plates). Dilution series=11 pt, 3-fold dilutions. The top compound concentration in the source plate is […]. The top compound concentration in the assay plate is 10 uM. Using Echo, dispense 10 nl/well DMSO to column 23 (in 384-well plates) or columns 45-47 (in 1536-well plates). These wells will serve as negative control wells Using Echo, dispense 10 nl/well 400 uM TAK-593 in DMSO to column 24 (in 384-well plates) or column 48 (in 1536-well plates). The final concentration of TAK-593 in the assay should be 1 uM. These wells will serve as positive control wells.Step 2. Pre-incubation of inhibitors with kinase: Add 2 μL/well 2× kinase solution. Centrifuge at 1000 rpm for 1 min. Incubate at room temperature for 30 min.Step 3. Kinase cascade reaction: Add 2 μL/well 2× substrate/ATP solution to initiate kinase reactions. Centrifuge at 1000 rpm for 1 min. Incubate at room temperature for 180 min.Final concentrations of components in the assay:[VEGFR2]=5 nM;[ATP]=1.2 mM;[Srctide]=1 mg/mL;[DMSO]≤1%.Step 4. Quench: Add 2 uL/well ADP Glo Reagent+0.05% CHAPS. Centrifuge at 1000 rpm for 1 min; Incubate at room temperature for one hour.Step 5. Detection: Add 2 uL/well Kinase Detection Reagent+0.05% CHAPS. Centrifuge at 1000 rpm for 1 min; Incubate at room temperature for 1 hour; Read Luminescence on a plate reader.

The target of experiment [3] is T1, Platelet-derived growth factor receptor beta. As to the kind of experiment: PDGFRβ HTRF Assay.
Method: PDGFRβ E+I pre-incubation: Add 2 μL 2× protein solution to columns 1-24 using the Multidrop Combi. Centrifuge at 1000 rpm for 1 min. Incubate 30 min at RTStep 2. Enzymatic reaction: Add 2 μL substrate solution to columns 1-24 to initiate the reaction using the Multidrop Combi; cover/seal the assay plate to reduce evaporation. Centrifuge at 1000 rpm for 1 min. […] Quench/Detection: Add 2 μl 3× quench/detection solution to columns 1-24 using the Multidrop Combi; cover/seal the plate. Centrifuge 1 min 1000 rpm. Incubate at RT for 60 min.

Each structure is given as a SMILES string.

T1 sequence (P09619 whole entry): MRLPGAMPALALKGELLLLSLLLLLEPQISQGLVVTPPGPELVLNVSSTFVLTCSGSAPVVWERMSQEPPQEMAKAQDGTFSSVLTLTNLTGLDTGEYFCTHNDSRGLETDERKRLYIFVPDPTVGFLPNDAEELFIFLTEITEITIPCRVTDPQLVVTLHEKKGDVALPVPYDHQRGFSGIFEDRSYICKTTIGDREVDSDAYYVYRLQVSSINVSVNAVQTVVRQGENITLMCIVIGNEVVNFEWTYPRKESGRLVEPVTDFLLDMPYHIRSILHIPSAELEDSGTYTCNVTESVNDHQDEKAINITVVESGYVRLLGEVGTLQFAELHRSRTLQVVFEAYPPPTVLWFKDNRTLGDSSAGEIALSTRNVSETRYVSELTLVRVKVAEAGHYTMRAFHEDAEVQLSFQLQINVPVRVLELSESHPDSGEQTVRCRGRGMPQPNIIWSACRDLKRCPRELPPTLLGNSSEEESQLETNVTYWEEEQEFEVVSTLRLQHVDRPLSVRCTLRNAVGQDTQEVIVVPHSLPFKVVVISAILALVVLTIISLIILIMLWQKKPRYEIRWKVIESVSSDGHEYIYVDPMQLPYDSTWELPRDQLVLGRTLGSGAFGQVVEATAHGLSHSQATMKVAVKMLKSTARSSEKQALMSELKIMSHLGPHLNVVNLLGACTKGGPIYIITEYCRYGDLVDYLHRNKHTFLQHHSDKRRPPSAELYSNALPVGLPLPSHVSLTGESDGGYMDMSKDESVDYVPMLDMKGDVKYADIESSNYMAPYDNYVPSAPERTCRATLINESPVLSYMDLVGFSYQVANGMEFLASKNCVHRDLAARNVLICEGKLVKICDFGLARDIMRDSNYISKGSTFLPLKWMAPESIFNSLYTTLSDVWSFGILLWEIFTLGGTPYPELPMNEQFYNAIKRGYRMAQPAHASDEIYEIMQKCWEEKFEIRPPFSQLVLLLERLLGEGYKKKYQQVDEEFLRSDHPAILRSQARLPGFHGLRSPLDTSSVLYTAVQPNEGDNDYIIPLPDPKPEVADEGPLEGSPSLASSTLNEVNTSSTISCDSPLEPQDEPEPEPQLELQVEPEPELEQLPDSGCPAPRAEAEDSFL
Chain of Vascular endothelial growth factor receptor 2 (P35968 whole entry): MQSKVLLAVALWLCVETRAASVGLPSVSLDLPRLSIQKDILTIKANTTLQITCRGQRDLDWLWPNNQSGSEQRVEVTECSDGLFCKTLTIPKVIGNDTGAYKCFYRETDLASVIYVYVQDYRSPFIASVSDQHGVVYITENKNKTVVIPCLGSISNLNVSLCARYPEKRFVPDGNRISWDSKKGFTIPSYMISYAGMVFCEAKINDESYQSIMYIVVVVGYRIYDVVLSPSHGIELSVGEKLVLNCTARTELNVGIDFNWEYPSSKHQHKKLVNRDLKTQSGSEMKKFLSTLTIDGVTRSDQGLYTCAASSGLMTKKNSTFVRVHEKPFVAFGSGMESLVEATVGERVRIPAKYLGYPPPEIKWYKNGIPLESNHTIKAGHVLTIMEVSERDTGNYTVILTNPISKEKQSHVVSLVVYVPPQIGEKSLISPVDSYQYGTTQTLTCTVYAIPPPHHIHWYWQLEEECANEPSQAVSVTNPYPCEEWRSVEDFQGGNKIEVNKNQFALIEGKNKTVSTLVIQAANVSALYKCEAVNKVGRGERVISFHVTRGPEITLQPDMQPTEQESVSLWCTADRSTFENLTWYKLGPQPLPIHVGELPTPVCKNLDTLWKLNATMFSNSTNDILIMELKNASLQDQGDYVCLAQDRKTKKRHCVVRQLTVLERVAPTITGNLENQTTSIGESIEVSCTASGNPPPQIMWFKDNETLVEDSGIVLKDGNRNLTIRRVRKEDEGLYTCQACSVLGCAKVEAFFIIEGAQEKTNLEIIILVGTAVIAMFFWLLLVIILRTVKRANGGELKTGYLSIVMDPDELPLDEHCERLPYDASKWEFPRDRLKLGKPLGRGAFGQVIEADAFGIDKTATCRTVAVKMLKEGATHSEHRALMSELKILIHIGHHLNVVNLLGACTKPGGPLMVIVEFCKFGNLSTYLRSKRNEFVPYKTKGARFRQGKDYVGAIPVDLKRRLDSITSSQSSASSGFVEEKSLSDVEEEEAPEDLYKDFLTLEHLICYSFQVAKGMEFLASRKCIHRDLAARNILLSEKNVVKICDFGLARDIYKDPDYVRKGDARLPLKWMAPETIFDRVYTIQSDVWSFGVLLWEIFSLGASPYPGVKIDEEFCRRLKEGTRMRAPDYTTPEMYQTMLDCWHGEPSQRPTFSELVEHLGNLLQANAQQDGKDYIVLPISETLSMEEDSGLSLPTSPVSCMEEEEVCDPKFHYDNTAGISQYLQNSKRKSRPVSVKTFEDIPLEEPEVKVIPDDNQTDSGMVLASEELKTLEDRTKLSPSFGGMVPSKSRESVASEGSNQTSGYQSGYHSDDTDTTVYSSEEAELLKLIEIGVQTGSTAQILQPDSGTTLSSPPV

For the compound `Cc1ncc(NC(=O)CN(CCO)C2CCCC2)cc1Nc1nn(C)c2nc(Nc3cnn(C)c3)ncc12` [US20240360134, Example 79], the IC50 in experiment [1] was determined as 2.5 nM; in experiment [2], 5390 nM.
As for `Cc1ncc(NC(=O)CN2CCC[C@@H]2C)cc1Nc1nn(C)c2nc(Nc3cnn(C)c3)ncc12` [US20240360134, Example 71], the IC50 in experiment [1] was 2.1 nM; in experiment [2], over 7500 nM; in experiment [3], 0.25 nM.
`COC(=O)C(C)(C)c1cccc(Nc2ncc3c(Nc4cc(C(=O)NCCN5CCCC5(C)C)cnc4C)nn(C)c3n2)c1` [US20240360134, Example 46]: the results for the IC50 in experiment [1], in experiment [2] and in experiment [3] were 4.9 nM, 3580 nM and 0.81 nM, respectively.
For the compound `Cc1ncc(NC(=O)CN2CC(F)(F)C2)cc1Nc1nn(C)c2nc(Nc3cnn(C)c3)ncc12` [US20240360134, Example 76], the IC50 stood at 2.6 nM in experiment [1], 3600 nM in experiment [2] and 0.42 nM in experiment [3].
`Cc1ncc(NC(=O)CN2CCC3(CC3)C2)cc1Nc1nn(C)c2nc(Nc3cnn(C)c3)ncc12` [US20240360134, Example 74]: the figures for the IC50 in experiment [1], in experiment [2] and in experiment [3] were 1.6 nM, 5070 nM and 0.23 nM, respectively.
For `Cc1ncc(NC(=O)CN2CCC(F)(F)C2)cc1Nc1nn(C)c2nc(Nc3cnn(C)c3)ncc12` [US20240360134, Example 75], the IC50 in experiment [1] came out at 2.1 nM; in experiment [2] it was 847 nM; in experiment [3], 0.35 nM.
As to `COC(=O)Cc1cccc(Nc2ncc3c(Nc4cc(C(=O)NCCN5CCCC5(C)C)cnc4C)nn(C)c3n2)c1` [US20240360134, Example 43], the IC50 worked out at 4.1 nM in experiment [1], 2080 nM in experiment [2] and 0.54 nM in experiment [3].
With `Cc1ncc(NC(=O)CN2C[C@@H](C)O[C@@H](C)C2)cc1Nc1nn(C)c2nc(Nc3cnn(C)c3)ncc12` [US20240360134, Example 78], the IC50 turned out to be 3.7 nM in experiment [1], 3930 nM in experiment [2] and 0.59 nM in experiment [3].
For `Cc1ncc(NC(=O)CN(CCCO)C2CCCC2)cc1Nc1nn(C)c2nc(Nc3cnn(C)c3)ncc12` [US20240360134, Example 80], the IC50 in experiment [1] was 3.2 nM; in experiment [2] it was over 7500 nM; in experiment [3] it was 0.5 nM.
With `Cc1ncc(NC(=O)CN2C[C@H](C)O[C@@H](C)C2)cc1Nc1nn(C)c2nc(Nc3cnn(C)c3)ncc12` (relative stereo) [US20240360134, Example 73], the values for the IC50 in experiment [1], in experiment [2] and in experiment [3] were 2.6 nM, 4570 nM and 0.5 nM, respectively.
Consider `Cc1ncc(NC(=O)CN2CCC(F)(F)CC2)cc1Nc1nn(C)c2nc(Nc3cnn(C)c3)ncc12` [US20240360134, Example 72], for which the IC50 in experiment [1] was 1.7 nM; in experiment [2], 1100 nM; in experiment [3], 0.27 nM.

A word on the IC50: it is the midpoint of a concentration-inhibition curve. Low readings indicate higher potency, high ones lower potency.
